According to PMC8460919, “Novel Angiotensin-I Converting Enzyme Inhibitory Peptides Isolated From Rice Wine Lees: Purification, Characterization, and Structure-Activity Relationship” (Frontiers in Nutrition, 2021):
Read-outs that look alike come from different tables or passages of the source. Each block holds one compound with its values, some of them ahead of it. Residues, ends and D or L forms follow the SMILES beside them.

Legend:
ACE [1] = target: T1, ACE (Oryctolagus cuniculus, UniProt P12822); test: Kinetic parameters of ACE inhibition (Lineweaver-Burk plots); assay type: biochemical, rabbit; settings: for type of ACE inhibition: Lineweaver-Burk plots, peptides at 0.05 or 0.1 mg/ml
T1 construct: Angiotensin-I converting enzyme (from rabbit lung); purchased Sigma Co., USA; host or cells: rabbit lung (tissue-derived)
T1 sequence (P12822 34-1310): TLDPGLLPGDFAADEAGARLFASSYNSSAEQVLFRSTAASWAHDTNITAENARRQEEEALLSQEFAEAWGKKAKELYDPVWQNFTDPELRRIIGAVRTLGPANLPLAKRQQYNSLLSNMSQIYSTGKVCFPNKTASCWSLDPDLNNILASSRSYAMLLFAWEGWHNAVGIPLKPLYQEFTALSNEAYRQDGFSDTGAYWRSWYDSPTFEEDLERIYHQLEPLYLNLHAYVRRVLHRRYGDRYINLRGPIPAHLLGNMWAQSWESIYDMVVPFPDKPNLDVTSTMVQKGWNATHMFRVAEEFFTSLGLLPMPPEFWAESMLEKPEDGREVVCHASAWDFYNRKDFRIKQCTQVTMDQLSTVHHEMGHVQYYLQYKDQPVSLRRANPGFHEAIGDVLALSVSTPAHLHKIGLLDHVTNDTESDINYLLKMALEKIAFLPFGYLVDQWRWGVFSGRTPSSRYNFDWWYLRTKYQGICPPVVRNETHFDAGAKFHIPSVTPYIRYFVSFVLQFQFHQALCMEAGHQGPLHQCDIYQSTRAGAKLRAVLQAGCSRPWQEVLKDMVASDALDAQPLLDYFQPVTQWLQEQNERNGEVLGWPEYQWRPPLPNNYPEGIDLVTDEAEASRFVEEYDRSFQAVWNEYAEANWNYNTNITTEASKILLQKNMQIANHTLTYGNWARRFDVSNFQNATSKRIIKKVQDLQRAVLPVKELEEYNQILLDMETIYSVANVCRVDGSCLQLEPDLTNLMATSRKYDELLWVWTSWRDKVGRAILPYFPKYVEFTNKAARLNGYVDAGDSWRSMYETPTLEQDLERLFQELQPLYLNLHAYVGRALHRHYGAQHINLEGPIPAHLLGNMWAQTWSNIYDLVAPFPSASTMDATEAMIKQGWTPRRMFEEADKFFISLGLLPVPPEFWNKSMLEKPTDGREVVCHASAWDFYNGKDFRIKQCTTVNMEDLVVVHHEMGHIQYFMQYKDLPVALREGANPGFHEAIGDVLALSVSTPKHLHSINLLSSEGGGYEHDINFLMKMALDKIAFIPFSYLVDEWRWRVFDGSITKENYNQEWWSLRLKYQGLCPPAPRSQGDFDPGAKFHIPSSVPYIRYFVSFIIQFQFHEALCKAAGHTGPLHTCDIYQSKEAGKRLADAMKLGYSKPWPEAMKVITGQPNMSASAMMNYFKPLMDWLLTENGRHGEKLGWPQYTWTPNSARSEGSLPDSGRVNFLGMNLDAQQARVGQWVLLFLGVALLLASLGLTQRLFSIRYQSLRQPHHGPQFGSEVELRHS
Experimental: Angiotensin-I converting enzyme inhibition of purified peptides was determined using Lineweaver–Burk plots according to reported methods ([32]). Samples were added at two fixed concentrations to each reaction mixture, and enzyme activity was measured for different concentrations of the substrate HHL according to the ACE inhibition assay. The curves were described by 1/area and 1/[S], and the kinetics of ACE inhibitors were estimated by comparing the resulting curves.
To clarify the kinetics of inhibition, Lineweaver–Burk plots were generated. Various concentrations of substrate were incubated with ACE solution in the absence or presence of RWLE peptides at 0.05 or 0.1 mg/ml.

[2] = target: T2, Angiotensin-I converting enzyme (from rabbit lung) (Oryctolagus cuniculus, UniProt P12822); test: ACE inhibitory activity (HHL substrate, hippuric acid by HPLC); assay type: biochemical; settings: for inhibition at 1000 µg/mL: concentration 1 mg/ml
T2 construct: Angiotensin-I converting enzyme (from rabbit lung); purchased Sigma Co., USA; host or cells: rabbit lung (tissue-derived)
T2 sequence (P12822 34-1310): T1 sequence (P12822 34-1310)
Experimental: (§1) Rice wine lees was obtained from Guangdong Shunde Winery Co., Ltd., Shunde, China. Angiotensin-I converting enzyme (from rabbit lung) and N-Hippuryl-His-Leu hydrate (HHL) were purchased from Sigma Co., USA. Other chemicals and reagents were of analytical grade.
Angiotensin-I converting enzyme inhibitory activity was measured using the method described in Wu et al. ([29]) with some modifications. For each reaction, 10 μl of 0.25 U/ ml ACE solution (prepared in 0.01 M potassium phosphate buffer containing 0.5 M NaCl, pH 7.0) was mixed with 10 μl of inhibitor solution and incubated for 5 min at 37°C. Subsequently, 30 μl of HHL solution (5 mM in 0.1 M sodium borate buffer containing 0.3 M NaCl, pH 8.3) was added, followed by incubation at 37°C for 1 h. The reaction was terminated with the addition of 70 μl 1 M HCl before subsequent assays were performed. For the control group, 10 μl ACE solution and 80 μl 1 M HCl were simultaneously added to the mixture. A blank sample was prepared by replacing the inhibitor solution with 10 μl borate buffer. […] Angiotensin-I converting enzyme activity (%) was calculated according to the following equation:
ACE inhibition(%) = (A1-A2)-B/(A1-A2)×100%
Where A1, A2, and B are peak areas corresponding to Hippuric Acid in the control group, the blank and the sample, respectively.

pepsin, chymotrypsin = test: Stability of peptides during in vitro digestion by gastrointestinal enzymes (ACEi activity after digestion); assay type: in vitro ADME; settings: in vitro digestion by pepsin and chymotrypsin
Experimental: Peptide stability was measured according to the methods described in Chen et al. ([30]) with some modifications. For this assay, 2% (w/w) pepsin was dissolved in a KCl–HCl buffer (0.1 mM) adjusted to pH 2.0, and 2% (w/w) chymotrypsin was dissolved in a KCl–NaOH (0.1 mM) buffer adjusted to pH 7.0. Peptides were dissolved at 1 mg/ml in pepsin or chymotrypsin solutions and incubated at 37°C for 4 h. Reactions were terminated by boiling for 15 min. After centrifugation at 4,000 rpm for 15 min, the supernatant was collected, pH was adjusted to 8.0, and samples were assayed for ACEi activity. The supernatant was also analyzed using the previously described RP-HPLC conditions to evaluate changes to the peptides after in vitro digestion.
Control groups were prepared by incubating inactivated pepsin and/or chymotrypsin (boiled for 15 min) with the sample peptides. After incubation, the mixture was processed and analyzed as described.

ACE [3] = target: T1, ACE; test: Stability of peptides against ACE (pre-incubation with ACE, then ACEi assay); assay type: in vitro ADME, rabbit; settings: for category of ACEi peptide from ACE pre-incubation test: true inhibitor / real substrate / pro-drug type
Experimental: as §1
The stability of peptides against ACE was assayed according to the methods of Deng ([31]), with some modifications. For each reaction, 30 μl of peptides (2 mg/ml) was combined with 30 μl 0.25 U/ml ACE solution and incubated at 37°C for 30 min. Angiotensin-I converting enzyme was then inactivated by boiling the solution for 10 min. As described in section Measurement of ACEi Activity, 20 μl of each peptide sample was used for the detection of ACEi activity.

[4] = peptide concentration 0.05 mg/ml
[5] = peptide concentration 0.1 mg/ml

Structure (SMILES): CC[C@H](C)[C@H](NC(=O)[C@@H](N)CC(C)C)C(=O)N[C@H](C(=O)N1CCC[C@H]1C(=O)N[C@@H](CCC(N)=O)C(=O)N[C@@H](Cc1c[nH]cn1)C(=O)O)[C@@H](C)CC [H5, LIIPQH] (H-LIIPQH-OH; N-terminus and C-terminus assumed)
type of ACE inhibition (ACE [1]): non-competitive inhibitors (mostly mixed-type) | type of ACE inhibition (ACE [1]; listed as LIIPQH): mixed-type ACE inhibitors | Vm (ACE [1]; [4]): 0.120 ΔA/min | Vm (ACE [1]; [5]): 0.070 ΔA/min | inhibition at 1000 µg/mL [2]: 89.3% | stability against gastrointestinal enzymes (pepsin, chymotrypsin): stable within the gastrointestinal environment | stability against gastrointestinal enzymes (pepsin, chymotrypsin; listed as LIIPQH): stable | stability against ACE (ACE [3]): stable | category of ACEi peptide from ACE pre-incubation test (ACE [3]): pro-drug ACE-inhibitors

IC50 ([2]; synthetic peptides): 1230 µM
Structure (SMILES): CC[C@H](C)[C@H](NC(=O)[C@@H](N)CC(C)C)C(=O)N[C@H](C(=O)N1CCC[C@H]1C(=O)N[C@@H](CCC(N)=O)C(=O)N[C@@H](Cc1c[nH]cn1)C(=O)N[C@@H](Cc1ccc(O)cc1)C(=O)O)[C@@H](C)CC [LIIPQHY] (H-LIIPQHY-OH; N-terminus and C-terminus assumed)

IC50 ([2]; synthetic peptides): 2040 µM
Structure (SMILES): CC[C@H](C)[C@H](NC(=O)[C@@H](N)CC(C)C)C(=O)N[C@H](C(=O)N1CCC[C@H]1C(=O)O)[C@@H](C)CC [LIIP] (H-LIIP-OH; N-terminus and C-terminus assumed)

IC50 ([2]; synthetic peptides): 1780 µM
Structure (SMILES): CC[C@H](C)[C@H](N)C(=O)N[C@H](C(=O)N1CCC[C@H]1C(=O)N[C@@H](CCC(N)=O)C(=O)N[C@@H](Cc1c[nH]cn1)C(=O)O)[C@@H](C)CC [IIPQH] (H-IIPQH-OH; N-terminus and C-terminus assumed)

IC50 ([2]; synthetic peptides): 995 µM
Structure (SMILES): CC[C@H](C)[C@H](NC(=O)[C@H](CC(C)C)NC(=O)[C@@H](N)CC(C)C)C(=O)N[C@H](C(=O)N1CCC[C@H]1C(=O)N[C@@H](CCC(N)=O)C(=O)N[C@@H](Cc1c[nH]cn1)C(=O)O)[C@@H](C)CC [LLIIPQH] (H-LLIIPQH-OH; N-terminus and C-terminus assumed)

IC50 ([2]; synthetic peptides): 2390 µM
Structure (SMILES): CC[C@H](C)[C@H](NC(=O)[C@@H](N)CC(C)C)C(=O)N[C@H](C(=O)N1CCC[C@H]1C(=O)N[C@@H](CCC(N)=O)C(=O)O)[C@@H](C)CC [LIIPQ] (H-LIIPQ-OH; N-terminus and C-terminus assumed)

IC50 ([2]; synthetic peptides): 1410 µM
Structure (SMILES): CC[C@H](C)[C@H](NC(=O)[C@@H](N)CC(C)C)C(=O)N[C@H](C(=O)N1CCC[C@H]1C(=O)N[C@@H](CCC(N)=O)C(=O)N[C@@H](Cc1c[nH]cn1)C(=O)N[C@@H](Cc1c[nH]cn1)C(=O)O)[C@@H](C)CC [LIIPQHH] (H-LIIPQHH-OH; N-terminus and C-terminus assumed)

type of ACE inhibition (ACE [1]; listed as LIIPEH): mixed-type ACE inhibitors | Vm (ACE [1]; [4]): 0.099 ΔA/min | Vm (ACE [1]; [5]): 0.049 ΔA/min | inhibition at 1000 µg/mL [2]: 91.7% | IC50 ([2]; products of each purification step (natural, from RWLE)): 83.9 µM | IC50 ([2]; synthetic peptides): 78.6 µM | stability against gastrointestinal enzymes (pepsin, chymotrypsin; listed as LIIPEH): stable | stability against ACE (ACE [3]): stable | IC50 (ACE [3]; control (co-incubation with inactive ACE), read-out: IC50 without pre-incubation (converted)): 51.3 µM | IC50 (ACE [3]; pre-incubation with ACE, 37°C 30 min, read-out: IC50 with pre-incubation (converted)): 70.7 µM | category of ACEi peptide from ACE pre-incubation test (ACE [3]): pro-drug ACE-inhibitors
Structure (SMILES): CC[C@H](C)[C@H](NC(=O)[C@@H](N)CC(C)C)C(=O)N[C@H](C(=O)N1CCC[C@H]1C(=O)N[C@@H](CCC(=O)O)C(=O)N[C@@H](Cc1c[nH]cn1)C(=O)O)[C@@H](C)CC [H6, LIIPEH] (H-LIIPEH-OH; N-terminus and C-terminus assumed)
type of ACE inhibition (ACE [1]): non-competitive inhibitors (mostly mixed-type) | stability against gastrointestinal enzymes (pepsin, chymotrypsin): stable within the gastrointestinal environment
